From patent US11092596B2, “Material and method to screen proteasome stimulators” (Purdue Research Foundation, priority 2017, dated 2021)
Entries after “also recorded” stand apart in the source; their conditions may differ.

Assays:
Type in all cases: biochemical
[1] = molecular target: T1, chymotrypsin-like activity of the 20S CP (Homo sapiens, UniProt P28074); assay: Kinetic assay, Suc-LLVY-AMC reporter hydrolysis by purified 20S CP; details: 25 μM compound, triplicate; hit = at least 50% increase
T1 construct: 5 μL purified 20S proteasome (90 nM in Tris-HCl) was added to the control and test wells
Method: Plate preparation for the kinetic assay was performed similarly for all assays. All 96-well plates contained the following in triplicate: reporter background, containing reporter only, and control wells, containing reporter and purified 20S CP. It was determined that each well will contain a total volume of 50 μL. To each well was added 40 μL of the coumarin or FRET reporters (in Tris-HCl, 50 mM, pH 7.7). To the reporter background wells was added 7.5 μL Tris-HCl and 2.5 μL of the solvent in which the compound of interest was dissolved or diluted. Similarly, to the control wells was added 2.5 μL Tris-HCl and 2.5 μL of the solvent in which the compound of interest was dissolved or diluted. To the test wells was added 2.5 μL Tris-HCl and 2.5 μL of the compound of interest at a predetermined concentration. Immediately prior to running the assay on the Synergy 4 Plate Reader, 5 μL purified 20S proteasome (90 nM in Tris-HCl) was added to the control and test wells.
The Synergy 4 Plate Reader was set to heat the plate at 37° C. and read fluorescence every 2 min over a 40 min period. The excitation and emission wavelengths were set according to the reporter. For the FRET reporter, the excitation and emission wavelengths were set to 335 nm and 493 nm, respectively, corresponding to the excitation and emission wavelengths of the Edans fluorophore. […]
Sodium dodecyl sulfate (SDS) was used to test the effect stimulating the 20S proteasome has on the hydrolysis of the FRET reporters. The appropriate concentration of SDS to use in the kinetic assay was determined using the small chymotrypsin-like activity reporter, Suc-LLVY-AMC (SEQ ID NO: 4). […] In triplicate, the following final concentrations of SDS were analyzed for the effect each has on the activity of the 20S proteasome: 4000 μM, 2000 μM, 1000 μM, 500 μM, 250 μM, 125 μM, and 0 μM, the basal activity of the 20S proteasome. […] Immediately prior to reading the plate with the Synergy 4 plate reader, 5 μL purified 20S proteasome (90 nM in Tris-HCl) was added to the wells at a final concentration of 9 nM per well.
The Synergy 4 Plate Reader was set to heat the plate at 37° C. and read fluorescence every 2 min over a 1 hr period. […] The resulting data in relative fluorescence units (RFU) was analyzed using GraphPad Prism and was plotted against time in minutes. […] Based on the resulting curve and the hyperbolic curve obtained using 1000 μM SDS (FIG. 11b), it was determined that 500 μM SDS was the appropriate concentration to use to test the effect stimulating the 20S proteasome has on the hydrolysis of the FRET reporters.
Stimulation of the 20S proteasome with SDS was determined using both the coumarin and FRET reporters for the chymotrypsin-like and trypsin-like activities of the 20S CP. […]

[2] = molecular target: T2, chymotrypsin-like activity of the 26S proteasome (Homo sapiens, UniProt P28074); assay: Kinetic assay, CT-L FRET reporter with 26S proteasome; details: 25 μM compound
T2 construct: 5 μL purified 26S proteasome (62.5 μg/mL in Tris-HCl) was added to the control and test wells
Method: Compounds 1, 2, and 3 were screened with the 26S proteasome in triplicate using the CT-L FRET reporter.
(§1) To each well was added 40 μL 20 μM CT-L FRET reporter (in Tris-HCl, 50 mM, pH 7.7). To the reporter background wells was added 5 μL Tris-HCl and 5 μL 1:1 Tris-HCl:DMSO. Similarly, to the control wells was added 5 μL 1:1 Tris-HCl:DMSO. To the test wells was added 2.5 μL Tris-HCl and 2.5 μL of a 500 μM solution of the compound of interest in DMSO. […] Immediately prior to running the assay on the Synergy 4 Plate Reader, 5 μL purified 26S proteasome (62.5 μg/mL in Tris-HCl) was added to the control and test wells.
(§2) The assay was performed using the Synergy 4 plate reader as described for the general screening kinetic assay procedure.

[3] = molecular target: chymotrypsin-like activity of the immunoproteasome core particle (iCP) (Homo sapiens, UniProt P28062); assay: Kinetic assay, CT-L FRET reporter with immunoproteasome; details: 25 μM compound
Method: Compounds 1, 2, and 3 were screened with the immunoproteasome in triplicate using the CT-L FRET reporter.
as §1, §2

Row | SMILES | primary hit status with the 4-amino acid reporter Suc-LLVY-AMC [1] | ability to stimulate the 26S proteasome's CT-L activity [2] | ability to stimulate the chymotrypsin-like activity of the iCP [3]
1 | C[C@H]1[C@H](C)CC[C@]2(C(=O)O)CC[C@]3(C)C(=CC[C@@H]4[C@@]5(C)CC[C@H](O)C(C)(C)[C@@H]5CC[C@]43C)[C@H]12 [Compound 2, ursolic acid] | would not have been considered primary hits | Neither molecules 2 or 3 affected the rate | showed an effect; also recorded: stimulate the chymotrypsin-like activity of the iCP significantly
2 | Cc1c(C)c2c(c(C)c1OC(=O)CCC(=O)O)CC[C@@](C)(CCC[C@H](C)CCC[C@H](C)CCCC(C)C)O2 [Compound 3, vitamin E succinate] | would not have been considered primary hits | Neither molecules 2 or 3 affected the rate | showed an effect; also recorded: stimulate the chymotrypsin-like activity of the iCP significantly
